In PMC12040169 (PLOS Biology, 2025) one finds viability data, which are given here for 76 compounds.

Structures are written as SMILES.

The nature of the series: in vitro. Particulars: human, hela cells, % viability.
The viability is a read-out of living cells in per cent, often relative to untreated cells. In the case of `CC(C)NC(=O)NC(=O)C1CCN(CCOc2ccc(Cl)cc2Cl)CC1` [CBK034949], the viability at 28.5 h, 10 µM was found to be 106%.

For `CNC(=O)NC(=O)C1CCN(CCc2ccccc2)CC1` [CBK034956], the viability at 28.5 h, 10 µM turned out to be 106%.

As to `CNC(=O)NC(=O)C1CCN(CCOc2ccccc2)CC1` [CBK034959], the viability at 28.5 h, 10 µM came out at 94.7%.

For the compound `CNC(=O)NC(=O)C1CCN(CCc2cccs2)CC1` [CBK034960], the viability at 28.5 h, 10 µM was 106%.

As to `CC(C)c1ccccc1NC(=O)NC(=O)C1CCN(CCc2ccc(C#N)cc2)CC1` [CBK035010], the viability at 28.5 h, 10 µM worked out at 90.3%.

As for `CCCCOc1ccc(NC(=O)NC(=O)C2CCN(CCc3ccc(Br)cc3)CC2)cc1` [CBK035096], the viability at 28.5 h, 10 µM stood at 91.5%.

Take `CCCCNC(=O)NC(=O)C1CCN(CCCOc2ccccc2)CC1` [CBK035198]: the viability at 28.5 h, 10 µM stood at 110%.

On to `Cc1ccn2c(C3CCN(CCc4ccccc4)CC3)nc(-c3ccccc3)c2c1` [CBK035490], for which the viability at 28.5 h, 10 µM was determined as 89.4%.

Regarding `Cc1cccc(-c2nc(C3CCCNC3)n3ccccc23)c1` (stereo not shown) [CBK035528], the viability at 28.5 h, 10 µM is 92.3%.

For the compound `COc1ccc(-c2nc(CCN)n3ccccc23)cc1` [CBK035583], the viability at 28.5 h, 10 µM stood at 94.3%.

For `COc1ccc(-c2nc(C3CCNCC3)n3ccccc23)cc1` [CBK035971], the viability at 28.5 h, 10 µM came out at 92.9%.

With `O=C1C2CCCCC2C(=O)N1CCCN1CCC(c2nc(-c3ccc(F)cc3)c3ccccn23)CC1` (stereo not shown) [CBK035972], the viability at 28.5 h, 10 µM was determined as 90.1%.

For `NCCOc1ncccc1OCc1ccccc1` [CBK036305], the viability at 28.5 h, 10 µM amounted to 90.7%.

Turning to `CNCCOc1ncccc1OCc1ccccc1` [CBK036306], the viability at 28.5 h, 10 µM worked out at 100%.

As for `CN1CCCC1CCOc1ncccc1OCc1ccccc1` (stereo not shown) [CBK036313], the viability at 28.5 h, 10 µM worked out at 93.1%.

In the case of `O=C(Nc1ccc(N2CCNCC2)c2ccccc12)c1cccnc1` [CBK036336T], the viability at 28.5 h, 10 µM was 92.9%.

Regarding `COc1ccc(C(=O)Nc2cc3ccccc3c(N3CCNCC3)n2)cc1` [CBK036344T], the viability at 28.5 h, 10 µM was determined as 91.2%.

For `O=C(Nc1cc2ccccc2c(N2CCNCC2)n1)c1cnccn1` [CBK036346T], the viability at 28.5 h, 10 µM is 95.4%.

For the compound `Cn1cccc1C(=O)Nc1cc2ccccc2c(N2CCNCC2)n1` [CBK036347T], the viability at 28.5 h, 10 µM was determined as 95.5%.

Turning to `O=C(NCc1ccc(OC2CCNCC2)cc1)c1cccs1` [CBK036353T], the viability at 28.5 h, 10 µM came to 89.8%.

Take `N#Cc1ccc(C(=O)NCc2ccc(OC3CCNCC3)cc2)cc1` [CBK036358T]: the viability at 28.5 h, 10 µM was 89.5%.

With `O=C(NCc1ccc(OC2CCNCC2)cc1)c1ccccn1` [CBK036361T], the viability at 28.5 h, 10 µM stood at 93.1%.

As for `O=C(Nc1cncc(OC2CCNCC2)n1)c1ccoc1` [CBK036366T], the viability at 28.5 h, 10 µM is 92%.

Regarding `O=C(Nc1cncc(OC2CCNCC2)n1)c1cnccn1` [CBK036372T], the viability at 28.5 h, 10 µM was determined as 93%.

Turning to `O=C(Nc1cncc(OC2CCNCC2)n1)c1cccnc1` [CBK036375T], the viability at 28.5 h, 10 µM stood at 92.1%.

As to `O=C(Nc1cncc(OC2CCNCC2)n1)c1cnc2ccccc2c1` [CBK036377T], the viability at 28.5 h, 10 µM was 92.8%.

As for `CN1CCCN(c2cc(C(F)(F)F)c3scc(C(=O)NCc4cccc(F)c4F)c3n2)CC1` [CBK036386T], the viability at 28.5 h, 10 µM is 87.9%.

For the compound `NCC1CCN(c2cc(C(F)(F)F)c3scc(C(=O)NCc4cccc(F)c4F)c3n2)CC1` [CBK036391T], the viability at 28.5 h, 10 µM was 71.6%.

As to `Cc1cccc(Cl)c1S(=O)(=O)c1ccc2ccnc(N3CCNCC3)c2c1` [CBK036394C], the viability at 28.5 h, 10 µM was determined as 78.9%.

With `COc1ccc([C@@]23CC[C@H](NC(=O)CSc4nccn4C)C[C@@H]2N(C)CC3)cc1OC` [CBK036444], the viability at 28.5 h, 10 µM was 84.7%.

For the compound `COc1ccc([C@@]23CC[C@H](NC(=O)CS(=O)(=O)c4ccccc4)C[C@@H]2N(C)CC3)cc1OC` [CBK036445], the viability at 28.5 h, 10 µM stood at 105%.

Regarding `COc1ccc([N+](=O)[O-])cc1NC(=O)N[C@@H]1CC[C@@]2(c3ccc(OC)c(OC)c3)CCN(C)[C@H]2C1` [CBK036449T], the viability at 28.5 h, 10 µM is 111%.

As to `COc1ccc([C@@]23CC[C@@H](NC(=O)Nc4ccccc4C(F)(F)F)C[C@@H]2N(C)CC3)cc1OC` [CBK036466T], the viability at 28.5 h, 10 µM turned out to be 106%.

With `COc1ccc([C@@]23CC[C@@H](NC(=O)Nc4ccc(Cl)cc4[N+](=O)[O-])C[C@@H]2N(C)CC3)cc1OC` [CBK036474T], the viability at 28.5 h, 10 µM amounted to 84.1%.

Take `COc1ccc(CNC(=O)c2cnc(-c3ccc(F)cc3)c(-c3ccc(C(C)=O)s3)c2)cc1` [CBK036577]: the viability at 28.5 h, 10 µM is 90.7%.

Consider `Fc1ccccc1-c1cn2ccnc2c(N2CCOCC2)n1` [CBK036584], for which the viability at 28.5 h, 10 µM worked out at 105%.

Regarding `COc1cccc(OC)c1-c1cn2ccnc2c(N[C@H](CO)C(C)C)n1` [CBK036586], the viability at 28.5 h, 10 µM was found to be 99.5%.

`COc1ncc(-c2nccnc2N[C@H](C)c2ccccc2)c(OC)n1` [CBK036588]: the viability at 28.5 h, 10 µM was determined as 83.7%.

Turning to `COc1ncc(-c2nccnc2N2CCN(C)CC2)c(OC)n1` [CBK036595], the viability at 28.5 h, 10 µM was determined as 98.7%.

Consider `Cc1cc(-c2nccnc2NCCCN2CCOCC2)cc(C)c1O` [CBK036598], for which the viability at 28.5 h, 10 µM was found to be 92%.

As to `c1cncc(-c2cn3ccnc3c(NCC3CC3)n2)c1` [CBK036609], the viability at 28.5 h, 10 µM is 84%.

In the case of `CC(=O)Nc1cccc(-c2nccnc2N[C@H](CO)C(C)C)c1` [CBK036611], the viability at 28.5 h, 10 µM came to 97%.

As for `COc1ccc(-c2cc(C(=O)Nc3nc4ccccc4[nH]3)cnc2-c2ccc(F)cc2)cn1` [CBK036617], the viability at 28.5 h, 10 µM stood at 98.6%.

Regarding `COc1ccc(-c2cc(C(=O)Nc3ccc4ncccc4c3)cnc2-c2ccccc2)cc1` [CBK036623], the viability at 28.5 h, 10 µM amounted to 106%.

For the compound `O=C(NC1CCc2ccccc21)c1cnc(-c2ccc(Cl)cc2)c(-c2ccc(O)cc2)c1` (stereo not shown) [CBK036629], the viability at 28.5 h, 10 µM stood at 91%.

In the case of `c1csc(-c2nccnc2NCCCN2CCOCC2)c1` [CBK036632], the viability at 28.5 h, 10 µM worked out at 84.6%.

In the case of `O=C(N[C@H]1CCN(Cc2ccccc2)C1)c1cnc(-c2ccccc2)c(-c2ccncc2)c1` [CBK036639], the viability at 28.5 h, 10 µM came to 84.7%.

Consider `CC(=O)c1ccc(-c2cc(C(=O)NCc3cccc(C(F)(F)F)c3)cnc2-c2ccccc2)s1` [CBK036641], for which the viability at 28.5 h, 10 µM came to 90.1%.

For `COc1ccccc1-c1nccnc1NCc1cc(OC)c(OC)c(OC)c1` [CBK036642], the viability at 28.5 h, 10 µM was found to be 90.6%.

Turning to `COc1ccc(NC(=O)c2cnc(-c3ccc(Cl)cc3)c(-c3ccc(C(C)=O)s3)c2)cn1` [CBK036643], the viability at 28.5 h, 10 µM was 92.2%.

Take `COc1ccc(-c2cc(C(=O)NCC(O)CO)cnc2-c2ccc(Cl)cc2)cn1` (stereo not shown) [CBK036645]: the viability at 28.5 h, 10 µM was found to be 94%.

With `Cc1cc(-c2nccnc2NCc2cccc(Cl)c2)cc(C)c1O` [CBK036646], the viability at 28.5 h, 10 µM came out at 87.4%.

On to `CC(C)[C@@H](CO)Nc1nccnc1-c1ccoc1` [CBK036648], for which the viability at 28.5 h, 10 µM is 86.6%.

With `COc1ccc(C(C)C)cc1-c1nccnc1NCCc1c[nH]c2ccccc12` [CBK036650], the viability at 28.5 h, 10 µM was determined as 109%.

With `Cc1cccc(-c2ncc(NC(=O)CCOc3ccccc3)nc2-c2ccc(N)cc2)c1` [CBK036655], the viability at 28.5 h, 10 µM turned out to be 113%.

In the case of `O=C(NCC(O)c1ccc(O)cc1)c1cnc(-c2ccc(Cl)cc2)c(-c2cccnc2)c1` (stereo not shown) [CBK036656], the viability at 28.5 h, 10 µM came to 92.5%.

In the case of `COC(=O)c1cscc1NC(=O)c1cnc(-c2ccc(Cl)cc2)c(-c2ccco2)c1` [CBK036657], the viability at 28.5 h, 10 µM came to 104%.

As to `COc1ccc(-c2nc(NC(=O)c3ccncc3)cnc2-c2ccc(F)c(Cl)c2)cc1` [CBK036663], the viability at 28.5 h, 10 µM amounted to 88.6%.

For the compound `O=C(NCCCN1CCOCC1)c1cnc(-c2ccccc2)c(-c2ccncc2)c1` [CBK036664], the viability at 28.5 h, 10 µM amounted to 106%.

`O=C(NCc1cccc(C(F)(F)F)c1)c1cnc(-c2ccccc2)c(-c2ccco2)c1` [CBK036667]: the viability at 28.5 h, 10 µM came to 103%.

As to `CCc1cccc(NC(=O)c2cnc(-c3ccc(Cl)cc3)c(-c3ccc(OC)nc3)c2)n1` [CBK036671], the viability at 28.5 h, 10 µM was determined as 93.7%.

On to `COc1ccc(C(C)C)cc1-c1nccnc1NCc1ccco1` [CBK036672], for which the viability at 28.5 h, 10 µM is 98%.

Regarding `COc1ccc(C(C)C)cc1-c1nccnc1N1CCCN(C)CC1` [CBK036677], the viability at 28.5 h, 10 µM stood at 110%.

Regarding `Cc1cccc(-c2ncc(C(=O)NCCc3c[nH]cn3)cc2-c2ccncc2)c1` [CBK036678], the viability at 28.5 h, 10 µM was 86.9%.

For the compound `COc1ncc(-c2nccnc2NCc2cccc([N+](=O)[O-])c2)c(OC)n1` [CBK036680], the viability at 28.5 h, 10 µM amounted to 97.7%.

In the case of `COc1ccc(-c2cc(C(=O)Nc3nc4c(OC)cccc4s3)cnc2-c2ccccc2)cn1` [CBK036681], the viability at 28.5 h, 10 µM is 105%.

`COc1ccc(C(C)C)cc1-c1nccnc1NCc1ccc2c(c1)OCO2` [CBK036683]: the viability at 28.5 h, 10 µM is 81%.

Turning to `Cc1cccc(-c2ncc(NC(=O)CCc3cccnc3)nc2-c2ccc(N)cc2)c1` [CBK036684], the viability at 28.5 h, 10 µM was determined as 86.9%.

As for `Nc1ccc(CCNC(=O)c2cnc(-c3ccc(Cl)cc3)c(-c3ccco3)c2)cc1` [CBK036686], the viability at 28.5 h, 10 µM was determined as 99.7%.

For `COc1ccc(-c2nc(NC(=O)C3CC(=O)N(C)C3c3cccnc3)cnc2-c2cccc(C)c2)cc1` (stereo not shown) [CBK036692], the viability at 28.5 h, 10 µM worked out at 101%.

`Cc1cccc(-c2ncc(NC(=O)c3ccccn3)nc2-c2ccc(N)cc2)c1` [CBK036694]: the viability at 28.5 h, 10 µM was 93.3%.

Turning to `NC(=O)c1ccc(-c2nccnc2NCc2ccc3c(c2)OCO3)cc1` [CBK036696], the viability at 28.5 h, 10 µM came to 91.3%.

Turning to `COc1ccc(-c2cc(C(=O)NCC3CCNCC3)cnc2-c2ccc(Cl)cc2)cn1` [CBK036700], the viability at 28.5 h, 10 µM is 105%.

For `COc1ncc(-c2nc(NC(=O)Cc3cc(F)c(F)c(F)c3)cnc2-c2cccc(C)c2)c(OC)n1` [CBK036717], the viability at 28.5 h, 10 µM was found to be 96.4%.

As for `COC1CCC(C(=O)Nc2cnc(-c3ccc(F)c(Cl)c3)c(-c3ccc(C(C)=O)s3)n2)CC1` (stereo not shown) [CBK036718], the viability at 28.5 h, 10 µM was determined as 99.3%.

As to `COC(=O)C(NC(=O)c1cnc(-c2ccc(Cl)cc2)c(-c2ccc(O)cc2)c1)c1ccccc1` (stereo not shown) [CBK036723], the viability at 28.5 h, 10 µM came out at 90.6%.
